Measured values as given in PubChem BioAssay (NCI).
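Results reflect a 48-hour exposure of cells in 96-well plates to compound at five concentrations. The concentration for 50% growth inhibition is given as GI50. Definition used: TGI = concentration required for complete inhibition of growth.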

Columns and labels:
Assay in all cases: DTP human tumour cell line panel, 48 h
SNB-19 CNS = test system: SNB-19 CNS
ACHN renal = test system: ACHN renal
RXF 393 renal = test system: RXF 393 renal
CCRF-CEM leukemia = test system: CCRF-CEM leukemia
MOLT-4 leukemia = test system: MOLT-4 leukemia
OVCAR-3 ovarian = test system: OVCAR-3 ovarian
HCC-2998 colon = test system: HCC-2998 colon
MDA-MB-435 = test system: MDA-MB-435
HOP-92 NSCLC = test system: HOP-92 NSCLC
UACC-62 melanoma = test system: UACC-62 melanoma
SK-MEL-2 melanoma = test system: SK-MEL-2 melanoma
K-562 leukemia = test system: K-562 leukemia
NCI-H460 lung = test system: NCI-H460 lung
TK-10 renal = test system: TK-10 renal
UACC-257 melanoma = test system: UACC-257 melanoma
NCI-H226 lung = test system: NCI-H226 lung
SW-620 colon = test system: SW-620 colon
COLO 205 colon = test system: COLO 205 colon
A498 renal = test system: A498 renal
MCF7 breast = test system: MCF7 breast
OVCAR-4 ovarian = test system: OVCAR-4 ovarian
LOX IMVI melanoma = test system: LOX IMVI melanoma
A549 NSCLC = test system: A549 NSCLC
HS 578T breast = test system: HS 578T breast
RPMI-8226 leukemia = test system: RPMI-8226 leukemia
CAKI-1 renal = test system: CAKI-1 renal
SK-MEL-5 melanoma = test system: SK-MEL-5 melanoma
SF-295 CNS = test system: SF-295 CNS
T-47D breast = test system: T-47D breast
HOP-62 NSCLC = test system: HOP-62 NSCLC
BT-549 breast = test system: BT-549 breast
OVCAR-8 ovarian = test system: OVCAR-8 ovarian
786-0 renal = test system: 786-0 renal
NCI/ADR-RES ovarian = test system: NCI/ADR-RES ovarian
HCT-116 colon = test system: HCT-116 colon
SN12C renal = test system: SN12C renal
KM12 colon = test system: KM12 colon
MDA-MB-468 breast = test system: MDA-MB-468 breast
EKVX NSCLC = test system: EKVX NSCLC
NCI-H23 lung = test system: NCI-H23 lung
MALME-3M melanoma = test system: MALME-3M melanoma
U251 CNS = test system: U251 CNS
SK-MEL-28 melanoma = test system: SK-MEL-28 melanoma
SNB-75 CNS = test system: SNB-75 CNS
HCT-15 colon = test system: HCT-15 colon
IGROV1 ovarian = test system: IGROV1 ovarian
SK-OV-3 ovarian = test system: SK-OV-3 ovarian
SF-268 CNS = test system: SF-268 CNS
HL-60(TB) leukemia = test system: HL-60(TB) leukemia
SR leukemia = test system: SR leukemia
MDA-MB-231 breast = test system: MDA-MB-231 breast
OVCAR-5 ovarian = test system: OVCAR-5 ovarian
HT29 colon = test system: HT29 colon
DU-145 prostate = test system: DU-145 prostate
SF-539 CNS = test system: SF-539 CNS
PC-3 prostate = test system: PC-3 prostate
NCI-H522 lung = test system: NCI-H522 lung
M14 melanoma = test system: M14 melanoma
UO-31 renal = test system: UO-31 renal

Nc1nn2c(-c3cc4cc(Br)ccc4oc3=O)ccnc2c1N=Nc1ccccc1 was tested, and the GI50 (SNB-19 CNS) was 1940 nM, the TGI (SNB-19 CNS) was 4.26 µM and the GI50 (ACHN renal) was 3.16 µM. For the same molecule, the TGI (ACHN renal) was 14.4 µM, the GI50 (RXF 393 renal) was 1990 nM and the TGI (RXF 393 renal) was 4.95 µM. For the same molecule, the GI50 (CCRF-CEM leukemia) was 24.6 µM, the TGI (CCRF-CEM leukemia) was over 100 µM and the GI50 (MOLT-4 leukemia) was 31.8 µM. For the same molecule, the TGI (MOLT-4 leukemia) was over 100 µM, the GI50 (OVCAR-3 ovarian) was 3.24 µM and the TGI (OVCAR-3 ovarian) was 23.9 µM. The GI50 (HCC-2998 colon) was 3.17 µM, the TGI (HCC-2998 colon) was 14.8 µM and the GI50 (MDA-MB-435) was 5.31 µM. For the same molecule, the TGI (MDA-MB-435) was over 100 µM, the GI50 (HOP-92 NSCLC) was 2210 nM and the TGI (HOP-92 NSCLC) was 6.04 µM. The GI50 (UACC-62 melanoma) was 5.52 µM, the TGI (UACC-62 melanoma) was 22.1 µM and the GI50 (SK-MEL-2 melanoma) was 3.96 µM. It also gave a TGI (SK-MEL-2 melanoma) of 19.8 µM, a GI50 (K-562 leukemia) of 26.7 µM and a TGI (K-562 leukemia) of over 100 µM. It also gave a GI50 (NCI-H460 lung) of 1950 nM, a TGI (NCI-H460 lung) of 5.05 µM and a GI50 (TK-10 renal) of 12.7 µM. The TGI (TK-10 renal) was 37.2 µM, the GI50 (UACC-257 melanoma) was 11.8 µM and the TGI (UACC-257 melanoma) was 40.9 µM. It also gave a GI50 (NCI-H226 lung) of 2160 nM, a TGI (NCI-H226 lung) of 5.84 µM and a GI50 (SW-620 colon) of 6.24 µM. For the same molecule, the TGI (SW-620 colon) was over 100 µM, the GI50 (COLO 205 colon) was 23.2 µM and the TGI (COLO 205 colon) was over 100 µM. It also gave a GI50 (A498 renal) of 1970 nM, a TGI (A498 renal) of 6.71 µM and a GI50 (MCF7 breast) of 3.24 µM. For the same molecule, the TGI (MCF7 breast) was 17.5 µM, the GI50 (OVCAR-4 ovarian) was 2890 nM and the TGI (OVCAR-4 ovarian) was 15.3 µM. It also gave a GI50 (LOX IMVI melanoma) of 3.09 µM, a TGI (LOX IMVI melanoma) of 10.7 µM and a GI50 (A549 NSCLC) of 3.42 µM. The TGI (A549 NSCLC) was 29.3 µM, the GI50 (HS 578T breast) was 3.11 µM and the TGI (HS 578T breast) was 17 µM. The GI50 (RPMI-8226 leukemia) was 31.6 µM, the TGI (RPMI-8226 leukemia) was over 100 µM and the GI50 (CAKI-1 renal) was 5.55 µM. It also gave a TGI (CAKI-1 renal) of 25.2 µM, a GI50 (SK-MEL-5 melanoma) of 2710 nM and a TGI (SK-MEL-5 melanoma) of 8.1 µM. It also gave a GI50 (SF-295 CNS) of 2100 nM, a TGI (SF-295 CNS) of 4.88 µM and a GI50 (T-47D breast) of 2790 nM. It also gave a TGI (T-47D breast) of 13.2 µM, a GI50 (HOP-62 NSCLC) of 1840 nM and a TGI (HOP-62 NSCLC) of 4.23 µM. For the same molecule, the GI50 (BT-549 breast) was 1920 nM, the TGI (BT-549 breast) was 3.77 µM and the GI50 (OVCAR-8 ovarian) was 2240 nM. It also gave a TGI (OVCAR-8 ovarian) of 5.36 µM, a GI50 (786-0 renal) of 2010 nM and a TGI (786-0 renal) of 4.71 µM. The GI50 (NCI/ADR-RES ovarian) was 2070 nM, the TGI (NCI/ADR-RES ovarian) was 4.54 µM and the GI50 (HCT-116 colon) was 2230 nM. It also gave a TGI (HCT-116 colon) of 4.73 µM, a GI50 (SN12C renal) of 1910 nM and a TGI (SN12C renal) of 4.92 µM. The GI50 (KM12 colon) was 3.32 µM, the TGI (KM12 colon) was over 100 µM and the GI50 (MDA-MB-468 breast) was 2210 nM. It also gave a TGI (MDA-MB-468 breast) of 9.7 µM, a GI50 (EKVX NSCLC) of 3.29 µM and a TGI (EKVX NSCLC) of 18 µM. The GI50 (NCI-H23 lung) was 2330 nM, the TGI (NCI-H23 lung) was 5.57 µM and the GI50 (MALME-3M melanoma) was 2720 nM. For the same molecule, the TGI (MALME-3M melanoma) was 10.9 µM, the GI50 (U251 CNS) was 2010 nM and the TGI (U251 CNS) was 4.4 µM. The GI50 (SK-MEL-28 melanoma) was 5.02 µM, the TGI (SK-MEL-28 melanoma) was 22.3 µM and the GI50 (SNB-75 CNS) was 1290 nM. It also gave a TGI (SNB-75 CNS) of 3.18 µM, a GI50 (HCT-15 colon) of 4.87 µM and a TGI (HCT-15 colon) of over 100 µM. For the same molecule, the GI50 (IGROV1 ovarian) was 4.57 µM, the TGI (IGROV1 ovarian) was 33.9 µM and the GI50 (SK-OV-3 ovarian) was 1870 nM. The TGI (SK-OV-3 ovarian) was 3.95 µM, the GI50 (SF-268 CNS) was 2120 nM and the TGI (SF-268 CNS) was 5.66 µM. The GI50 (HL-60(TB) leukemia) was over 100 µM, the TGI (HL-60(TB) leukemia) was over 100 µM and the GI50 (SR leukemia) was 5.38 µM. The TGI (SR leukemia) was over 100 µM, the GI50 (MDA-MB-231 breast) was 1990 nM and the TGI (MDA-MB-231 breast) was 4.43 µM. The GI50 (OVCAR-5 ovarian) was 3.29 µM, the TGI (OVCAR-5 ovarian) was 15.1 µM and the GI50 (HT29 colon) was 3.13 µM. It also gave a TGI (HT29 colon) of 11.5 µM, a GI50 (DU-145 prostate) of 4.71 µM and a TGI (DU-145 prostate) of over 100 µM. For the same molecule, the GI50 (SF-539 CNS) was 1990 nM, the TGI (SF-539 CNS) was 3.88 µM and the GI50 (PC-3 prostate) was 2920 nM. It also gave a TGI (PC-3 prostate) of 9.32 µM, a GI50 (NCI-H522 lung) of 1900 nM and a TGI (NCI-H522 lung) of 4.19 µM. It also gave a GI50 (M14 melanoma) of 16 µM, a TGI (M14 melanoma) of over 100 µM and a GI50 (UO-31 renal) of 11.1 µM. It also gave a TGI (UO-31 renal) of 86.6 µM.
